Assay results as given in US20230331720A1, “MEDIUM- OR MACRO-CYCLIC BENZYL-SUBSTITUTED HETEROCYCLE DERIVATIVES AND THEIR USES AS OREXIN-2 RECEPTOR AGONISTS” (Orexia Therapeutics Limited, priority 2020, published 2023).
Like-named read-outs stand apart in the source and are kept apart here.

How the values were obtained:
[1] = system: mouse models of narcolepsy type 1 / WT mice; details: cited from earlier work
individuals with NT1 = details: initial clinical studies; cited from earlier work
[2] = not given; remark: listed apart in the source

## CN(C)S(=O)(=O)NC1CCCN2C(=O)CCOc3ccccc3-c3cccc(c3)CC12 (centres unmarked)
From CN(C)S(=O)(=O)NC1CCCNC1Cc1cccc(-c2ccccc2OCCC(=O)O)c1, amide bond, 12-membered ring, HATU/DIEA, DMF, 0.4 mM, 20.0 °C, 12.0 h
  ring closure, yield after HPLC: 29.9%

## COC(=O)N1CCC[C@H](NS(C)(=O)=O)[C@@H]1CO[C@H]1CC[C@@H](c2ccccc2)CC1 [TAK-925]
[1]; subcutaneous administration, OX2R-knockout mice
  wakefulness: not
[1]; subcutaneous administration, WT mice
  wakefulness: modestly increased wakefulness
Individuals with NT1
  cataplexy: trends for decreasing cataplexy
  wakefulness: substantial levels of increased wakefulness

## COc1ccc(-c2cccc(C(=O)N(C)C)c2)cc1S(=O)(=O)Nc1cccc(NCCNC(=O)c2ccccc2N(C)C)c1 [YNT-185]
[1]; intraperitoneally or ICV, NT1 mouse model
  sleep-onset REM periods and cataplexy-like events: decrease sleep-onset REM periods and cataplexy-like events
[1]; intraperitoneally or ICV, wild type (WT) and orexin ligand-deficient mice
  wakefulness: modestly increases wakefulness

## N-(1^3,1^5-difluoro-5-oxo-4(2,1)-pyrrolidina-1(1,2),2(1,3)-dibenzenacyclo-undecaphane-4^3-yl)ethanesulfonamide_cis racemic
Amide bond, 15-membered ring, HATU/DIEA, DCM, 11.7 mM, 25.0 °C
  ring closure, yield after HPLC: 8%

## N-(1^3,1^5-difluoro-5-oxo-6-aza-4(2,1)-pyrrolidina-1-(1,2),2-(1,3)-dibenzena-cycloundecaphane-4^3-yl)ethanesulfonamide_cis racemic
Crosslinker bond, 15-membered ring, CDI/DIEA, DMF, 52.5 mM, 25.0 °C
  ring closure, yield after HPLC: 11%

## N-(5-oxo-6,9-dioxa-4(2,1)-pyrrolidina-1(1,2),2(1.3)-dibenzenacyclo-nonaphane-4^3-yl)ethanesulfonamide_cis racemic
Crosslinker bond, 13-membered ring, CDI/DIEA, DMF, 10.0 mM, 80.0 °C
  ring closure, yield after HPLC: 22%

## N-(5-oxo-9-oxa-6-aza-4(2,1)-piperidina-1(1,2),2(1,3)-dibenzenacyclo-nonaphane-4^3-yl)methanesulfonamide_cis racemic
[2]; crosslinker bond, 13-membered ring, CDI/DIEA, DMF, 97.5 mM, 70.0 °C
  ring closure, isolated yield: 23%

## N-(5-oxo-12-oxa-6-aza-4(2,1)-pyrrolidina-1(1,2),2(1,3)-dibenzenacyclo-dodeca phane-43-yl)ethanesulfonamide_cis racemic
[2]; crosslinker bond, 16-membered ring, CDI/DIEA, THF/DMF 4:1, 10.0 mM, 70.0 °C
  ring closure, isolated yield: 38%

## N-(5-oxo-12-phenyl-2,3,5,6,7,8,9,10,16,16a-decahydro-1H-benzo[b]pyrrolo[2,1-e][1]oxa[6]azacyclododecin-1-yl)ethanesulfonamide_cis racemic
Ether bond, 12-membered ring, K2CO3, DMF, 10.7 mM, 80.0 °C
  ring closure, yield after HPLC: 10%

## N-(6-methyl-5-oxo-9-oxa-6-aza-4(2,1)-piperidina-1(1,2),2(1,3)-dibenzena-cyclo-nonaphane-4^3-yl)methanesulfonamide_cis racemic
Crosslinker bond, 13-membered ring, triphosgene/DIEA, DCM, 8.5 mM, 25.0 °C
  ring closure, yield after HPLC: 3%

## N-((4^2,4^3S)-5-oxo-8-oxa-4(2,1)-piperidina-1(1,2),2(1.3)-dibenzenacyclo-octaphane-4^3-yl)ethanesulfonamide
Amide bond, 12-membered ring, HATU/DIEA, DMF, 2.24 mM, 25.0 °C
  ring closure, yield after HPLC: 29.4%

## N-((4^2S,4^3S)-5-oxo-4(2,1)-piperidina-1(1,2),2(1,3)-dibenzenacyclooctaphane-4^3-yl)methanesulfonamide
[2]; amide bond, 12-membered ring, HATU/DIEA, DMF, 6.5 mM
  ring closure, isolated yield: 6%

## N-((4^2S,4^3S)-5-oxo-8-oxa-4(2,1)-piperidina-1(1,2),2(1,3)-dibenzenacyclo-octaphane-4^3-yl)methanesulfonamide
Amide bond, 12-membered ring, HATU/DIEA, DMF, 2.31 mM, 25.0 °C
  ring closure, yield after HPLC: 23.4%
